Consider 5 molecules from US11858894B2, “Crystalline form of 1-(5-(2,4-Difluorophenyl)-1-((3-fluorophenyl)sulfonyl)-4-methoxy-1H-pyrrol-3-yl)-n-methylmethanamine salt” (Daewoong Pharmaceutical Co., Ltd., priority 2016, dated 2024).

The structures appear in SMILES notation. Bounds are passed on as bounds.

The nature of one data set: Solubility test in water. Particulars: thermodynamic from solid; deionized water, shaking and ultrasonic shaking. Type of data set: physicochemical. On the procedure:
For the solubility test in water, a sample of less than 10 mg was first precisely weighed and taken and placed into a vial, to which 50 μl of deionized water was added, shaking for 30 seconds and ultrasonic shaking for 1 minute were carried out, and these processes were repeated several times. The water solubility was calculated by measuring the amount of water used to dissolve all the samples.

Data set [1] can be described thus: Stability confirmation test (impurity formation during storage under severe conditions, liquid chromatography). Type of data set: physicochemical. On the procedure: The stability test was carried out for the crystalline forms prepared in the Examples to evaluate the degree to which impurities were formed during storage under severe conditions (moisture-proof condition and high-humidity exposure condition). The results of the stability test under the moisture-proof condition were shown in Table 2 below, and the results of the stability test under the high-humidity exposure condition were shown in Table 3 below. For the stability test, vials containing 10 mg of each sample which was precisely weighed and taken were prepared in the planned quantity, and they were stored by dividing into the moisture-proof condition (60° C. and less than 10% relative humidity) and under the high-humidity exposure condition (60° C. and 95% relative humidity). However, under the high-humidity exposure condition, a stopper of the vial was not used to keep so that the sample is in sufficient contact with a moisture in the air. At a fixed point of time after the initiation of the test, two vials per point of time were taken (number of samples per test n=2). 10 ml of methanol was added to each vial to dissolve the sample, which was then centrifuged. The resulting supernatant was analyzed using a liquid chromatography. The peak area was determined by integration for all detected peaks, and the relative peak area for the main component and the total impurity was calculated and expressed as an average value.

The mark [2] stands for this setting: high-humidity exposure condition (60° C., 95% relative humidity), After 1 week.
Setting [3] is: high-humidity exposure condition (60° C., 95% relative humidity), After 2 weeks.
Where [4] appears, read: high-humidity exposure condition (60° C., 95% relative humidity), After 4 weeks.
[5] abbreviates: high-humidity exposure condition (60° C., 95% relative humidity), Initial.
The mark [6] stands for this setting: moisture-proof condition (60° C., less than 10% relative humidity), After 2 weeks.
Setting [7] is: moisture-proof condition (60° C., less than 10% relative humidity), After 4 weeks.
Setting [8] is: moisture-proof condition (60° C., less than 10% relative humidity), Initial.

As to `CNCc1cn(S(=O)(=O)c2cccc(F)c2)c(-c2ccc(F)cc2F)c1OC.O=C(O)/C=C/C(=O)O` [Example 5-1, 1-(5-(2,4-difluorophenyl)-1-((3-fluorophenyl)sulfonyl)-4-methoxy-1H-pyrrol-3-yl)-N-methylmethanamine fumarate], in “Solubility test in water”, the solubility was 1730 to 2600 µg/mL. The “Peak area of main component” value is listed as 99.40% in data set [1] (setting [2]); 99.32% in data set [1] (setting [3]); 99.30% in data set [1] (setting [4]); 99.38% in data set [1] (setting [5]); 99.36% in data set [1] (setting [6]); 99.37% in data set [1] (setting [7]). Also, in data set [1] (setting [8]), the “Peak area of main component” value is 99.38%. Besides, the “Peak area of total impurities” value is listed as 0.60% in data set [1] (setting [2]); 0.68% in data set [1] (setting [3]); 0.70% in data set [1] (setting [4]); 0.62% in data set [1] (setting [5]); 0.64% in data set [1] (setting [6]); 0.63% in data set [1] (setting [7]). Moreover, the “Peak area of total impurities” value in data set [1] (setting [8]) turned out to be 0.62%.

On to `CNCc1cn(S(=O)(=O)c2cccc(F)c2)c(-c2ccc(F)cc2F)c1OC.O=C(O)CCC(=O)O` [Example 3-1, 1-(5-(2,4-difluorophenyl)-1-((3-fluorophenyl)sulfonyl)-4-methoxy-1H-pyrrol-3-yl)-N-methylmethanamine succinate], for which the “Peak area of main component” value in data set [1] (setting [2]) is 99.56%; in data set [1] (setting [3]), 99.53%; in data set [1] (setting [4]), 99.47%; in data set [1] (setting [5]), 99.55%; in data set [1] (setting [6]), 99.61%; in data set [1] (setting [7]), 99.55%. Also, the “Peak area of main component” value in data set [1] (setting [8]) came to 99.55%. Further, the “Peak area of total impurities” value in data set [1] (setting [2]) is reported as 0.44%; in data set [1] (setting [3]), 0.47%; in data set [1] (setting [4]), 0.54%; in data set [1] (setting [5]), 0.45%; in data set [1] (setting [6]) it was 0.39%; in data set [1] (setting [7]) it was 0.45%. Besides, in data set [1] (setting [8]), the “Peak area of total impurities” value was determined as 0.45%.

For `CNCc1cn(S(=O)(=O)c2cccc(F)c2)c(-c2ccc(F)cc2F)c1OC.Cl` [Example 1-1, 1-(5-(2,4-difluorophenyl)-1-((3-fluorophenyl)sulfonyl)-4-methoxy-1H-pyrrol-3-yl)-N-methylmethanamine hydrochloride], the “Peak area of main component” value is listed as 99.81% in data set [1] (setting [2]); 99.80% in data set [1] (setting [3]); 99.80% in data set [1] (setting [4]); 99.82% in data set [1] (setting [5]); 99.80% in data set [1] (setting [6]); 99.80% in data set [1] (setting [7]). In addition, in data set [1] (setting [8]), the “Peak area of main component” value was determined as 99.82%. For the same molecule, the “Peak area of total impurities” value in data set [1] (setting [2]) amounted to 0.19%; in data set [1] (setting [3]), 0.20%; in data set [1] (setting [4]), 0.20%; in data set [1] (setting [5]), 0.18%; in data set [1] (setting [6]) it was 0.19%; in data set [1] (setting [7]), 0.20%. Besides, the “Peak area of total impurities” value in data set [1] (setting [8]) came out at 0.18%.

Take `CNCc1cn(S(=O)(=O)c2cccc(F)c2)c(-c2ccc(F)cc2F)c1OC.O=C(O)C(O)C(O)C(=O)O` [Example 4-1, 1-(5-(2,4-difluorophenyl)-1-((3-fluorophenyl)sulfonyl)-4-methoxy-1H-pyrrol-3-yl)-N-methylmethanamine tartrate]: the “Peak area of main component” value is 99.48% in data set [1] (setting [2]); 99.43% in data set [1] (setting [3]); 99.23% in data set [1] (setting [4]); 99.52% in data set [1] (setting [5]); 99.54% in data set [1] (setting [6]); 99.48% in data set [1] (setting [7]). Moreover, the “Peak area of main component” value in data set [1] (setting [8]) turned out to be 99.52%. The “Peak area of total impurities” value is 0.52% in data set [1] (setting [2]); 0.57% in data set [1] (setting [3]); 0.77% in data set [1] (setting [4]); 0.48% in data set [1] (setting [5]); 0.46% in data set [1] (setting [6]); 0.52% in data set [1] (setting [7]). In addition, the “Peak area of total impurities” value in data set [1] (setting [8]) was 0.48%.

`CNCc1cn(S(=O)(=O)c2cccc(F)c2)c(-c2ccc(F)cc2F)c1OC` [Comparative Example 1, 1-(5-(2,4-difluorophenyl)-1-((3-fluorophenyl)sulfonyl)-4-methoxy-1H-pyrrol-3-yl)-N-methylmethanamine free base] showed a solubility in the data set “Solubility test in water” of less than 160 µg/mL.
